Reference: article PMC9127750, “Structure-based design of CDC42 effector interaction inhibitors for the treatment of cancer” (Cell reports, 2022)
Values joined by “and” are separate entries in the source; they are usually repeats but may differ in a detail not shown here. Equal values may be shown once.

Test system: WM3248 melanoma cells, 486 antibodies
Test: Reverse phase protein arrays (RPPA)
Assay type: cell-based, Human
Text: Pellets were snap frozen in liquid nitrogen and shipped to MD Anderson Cancer Center core RPPA facility for RPPA analysis (Table S5). Three biological replicates for each sample were generated.
Nomenclatures on the RPPA heatmaps: name_of_antibody.species_of_antibody.status_of_antibody. V - antibody validated; C - validation of antibody in progress; Q - antibody nonspecific; E – under evaluation; antibodies raised in M - mouse, G - goat, R - rabbit, or T - rat.

[1] = Norm_5: replicates 1-3 and Average, relative to 0
[2] = Norm_5, replicates 1-3 and Average, relative to Norm_0

CN(C)c1cccc(Nc2cc(-c3ccccc3)nc(C3CCNCC3)n2)c1 [ARN22089, N1,N1-dimethyl-N3-(6-phenyl-2-(piperidin-4-yl)pyrimidin-4-yl)benzene-1,3-diamine]
RSK1.R.V normalized RPPA signal [1]: 1.085 and 0.967 and 1.032 | RSK.R.C normalized RPPA signal [1]: 1.076 and 1.100 | Rab11.R.C normalized RPPA signal [1]: 1.016 and 1.047 and 1.025 and 1.029 | Rab25.R.V normalized RPPA signal [1]: 0.979 and 1.011 and 0.966 and 0.985 | Rad17_pS645.R.V normalized RPPA signal [1]: 0.979 and 0.856 and 0.975 | Rad23A.R.C normalized RPPA signal [1]: 0.977 and 1.149 and 0.762 and 0.963 | Rad50.R.V normalized RPPA signal [1]: 1.246 and 0.924 and 1.080 | Rad51.R.C normalized RPPA signal [1]: 0.775 and 0.822 and 0.890 and 0.829 | Raptor.R.V normalized RPPA signal [1]: 0.903 and 1.058 and 0.970 | Rb.M.Q normalized RPPA signal [1]: 0.962 and 0.918 and 0.956 and 0.945 | Rb_pS807_S811.R.V normalized RPPA signal [1]: 0.882 and 1.011 and 0.977 | Rheb.M.C normalized RPPA signal [1]: 1.004 and 1.059 and 1.001 and 1.021 | Rictor.R.C normalized RPPA signal [1]: 1.004 and 0.961 and 1.013 | Rictor_pT1135.R.V normalized RPPA signal [1]: 1.047 and 0.998 and 1.024 and 1.023 | S6.M.V normalized RPPA signal [1]: 1.120 and 0.958 and 1.452 | S6_pS235_S236.R.V normalized RPPA signal [1]: 1.127 and 0.835 and 1.012 and 0.991 | S6_pS240_S244.R.V normalized RPPA signal [1]: 0.956 and 0.805 and 0.753 and 0.838 | SCD.M.V normalized RPPA signal [1]: 0.971 and 0.991 and 1.085 and 1.016 | SDHA.R.V normalized RPPA signal [1]: 1.033 and 1.016 and 1.031 | SF2.R.V normalized RPPA signal [1]: 0.946 and 0.943 and 1.034 and 0.974 | SFRP1.R.V normalized RPPA signal [1]: 0.931 and 0.917 and 0.927 and 0.925 | SGK1.R.V normalized RPPA signal [1]: 1.122 and 0.983 and 1.065 | SGK3.R.V normalized RPPA signal [1]: 0.809 and 0.879 and 0.966 and 0.885 | SHP2.R.V normalized RPPA signal [1]: 0.965 and 0.955 and 0.959 and 0.960 | SHP.2_pY542.R.C normalized RPPA signal [1]: 1.007 and 1.103 and 0.995 and 1.035 | SIRPαR.V normalized RPPA signal [1]: 0.995 and 0.945 and 0.836 and 0.925 | SLC1A5.R.C normalized RPPA signal [1]: 1.053 and 0.972 | SOD1.M.V normalized RPPA signal [1]: 0.959 and 1.035 and 0.980 | SOD2.R.V normalized RPPA signal [1]: 1.012 and 1.026 and 0.995 | SOX7.R.V normalized RPPA signal [1]: 0.939 and 1.028 and 0.910 and 0.959 | STING.R.V normalized RPPA signal [1]: 0.946 and 1.077 and 1.149 and 1.057 | Shc_pY317.R.C normalized RPPA signal [1]: 0.575 and 1.701 and 1.009 | Slfn11.G.C normalized RPPA signal [1]: 0.898 and 1.001 and 0.887 and 0.929 | Smac.M.Q normalized RPPA signal [1]: 0.860 and 1.033 and 0.824 and 0.905 | Smad1.R.V normalized RPPA signal [1]: 1.028 and 1.016 and 1.057 and 1.034 | Smad3.R.V normalized RPPA signal [1]: 1.027 and 1.110 and 0.885 and 1.007 | Smad4.R.V normalized RPPA signal [1]: 0.953 and 0.919 and 1.129 and 1.000 | Snail.M.Q normalized RPPA signal [1]: 0.807 and 0.836 and 0.899 and 0.847 | Sox2.R.V normalized RPPA signal [1]: 1.113 and 0.987 and 0.935 and 1.012 | Sox17.R.V normalized RPPA signal [1]: 0.914 and 0.904 and 1.000 and 0.939 | Src.M.V normalized RPPA signal [1]: 0.923 and 1.011 and 1.048 and 0.994 | Src_pY416.R.V normalized RPPA signal [1]: 0.930 and 0.928 and 0.956 | Src_pY527.R.V normalized RPPA signal [1]: 1.055 and 1.158 and 1.605 and 1.273 | Stat1_pY701.R.V normalized RPPA signal [1]: 0.914 and 0.929 and 0.961 and 0.935 | Stat3.R.C normalized RPPA signal [1]: 0.970 and 0.910 and 0.975 | Stat3_pY705.R.C normalized RPPA signal [1]: 1.031 and 0.914 and 0.997 and 0.980 | Stat5a.R.V normalized RPPA signal [1]: 0.989 and 1.022 and 1.028 and 1.013 | Stathmin.1.R.V normalized RPPA signal [1]: 1.025 and 1.018 and 0.975 and 1.006 | Syk.M.V normalized RPPA signal [1]: 0.694 and 0.899 and 1.030 and 0.874 | Synaptophysin.R.C normalized RPPA signal [1]: 0.918 and 0.774 and 1.022 and 0.904 | TAZ.R.V normalized RPPA signal [1]: 0.970 and 1.124 and 0.886 and 0.994 | TEAD.R.C normalized RPPA signal [1]: 0.913 and 0.942 and 0.954 and 0.936 | TFAM.R.V normalized RPPA signal [1]: 0.945 and 1.024 and 1.101 and 1.023 | TFRC.R.V normalized RPPA signal [1]: 0.905 and 0.974 and 0.942 and 0.940 | TIGAR.R.V normalized RPPA signal [1]: 1.046 and 0.999 and 1.028 | TRAP1.M.V normalized RPPA signal [1]: 0.917 and 0.980 and 0.909 and 0.935 | TRIM24.R.C normalized RPPA signal [1]: 0.917 and 0.931 and 1.013 and 0.954 | TRIM25.R.C normalized RPPA signal [1]: 0.925 and 1.108 and 1.361 and 1.131 | TRIP13.R.V normalized RPPA signal [1]: 0.993 and 0.918 and 0.936 | Tau.M.C normalized RPPA signal [1]: 1.003 and 0.977 and 1.007 | Transglutaminase.M.V normalized RPPA signal [1]: 1.143 and 1.434 and 0.745 and 1.107 | A.Raf.R.V RPPA signal, normalized [2]: 1.063 and 0.973 and 1.128 and 1.055 | A.Raf_pS299.R.C RPPA signal, normalized [2]: 0.910 and 0.929 and 0.996 and 0.945 | ACC1.R.C RPPA signal, normalized [2]: 1.079 and 1.112 | ACC_pS79.R.V RPPA signal, normalized [2]: 0.996 and 1.006 and 1.005 and 1.002 | ACLY_pS455.R.V RPPA signal, normalized [2]: 0.993 and 1.161 and 0.844 and 0.999 | ACSL1.R.V RPPA signal, normalized [2]: 0.995 and 0.806 and 0.904 | ACVRL1.R.C RPPA signal, normalized [2]: 0.940 and 0.993 and 0.936 and 0.956 | ADAR1.M.V RPPA signal, normalized [2]: 0.990 and 0.970 and 1.080 and 1.013 | ALKBH5.R.V RPPA signal, normalized [2]: 1.026 and 1.137 and 0.879 and 1.014 | AMPK.a2_pS345.R.V RPPA signal, normalized [2]: 0.974 and 1.081 and 1.055 | AMPKa.R.C RPPA signal, normalized [2]: 1.048 | AMPKa_pT172.R.C RPPA signal, normalized [2]: 1.029 and 0.832 and 0.850 and 0.903 | AR.R.V RPPA signal, normalized [2]: 1.053 and 0.956 and 1.050 and 1.020 | ARID1A.R.C RPPA signal, normalized [2]: 1.008 and 1.012 and 1.065 | ASNS.R.V RPPA signal, normalized [2]: 1.454 and 1.206 | ATM.R.V RPPA signal, normalized [2]: 0.983 and 1.033 and 1.311 and 1.109 | ATM_pS1981.R.V RPPA signal, normalized [2]: 0.928 and 0.941 and 0.961 and 0.943 | ATP5A.M.C RPPA signal, normalized [2]: 1.127 and 1.377 and 0.535 and 1.013 | ATP5H.R.V RPPA signal, normalized [2]: 1.032 and 1.077 and 0.898 and 1.003 | ATR.R.V RPPA signal, normalized [2]: 0.945 and 0.970 and 0.954
